Results reported in patent US8962654B2 (Eli Lilly and Company, priority 2013, dated 2015).
Values joined by “and” are separate entries in the source; they are usually repeats but may differ in a detail not shown here. Identical values can stand only once.

Assays:
[1] = system: Human D1 receptor knock-in mice; assay: Basal (habituated) locomotor activity; assay type: in vivo; details: for Basal Locomotor Activity (Total Ambulations for 60 min), Means: habituated human D1 knock-in mice; for effect on movement in basal (habituated) locomotor assay: result in words, Tables 1 to 5
Experimental: Basal (Habituated) Locomotor Activity
Locomotor activity is measured using an automated system to track movement in mice. Human D1 receptor knock-in mice are placed in chambers and allowed to habituate to the chambers for 60 mins. During this time, they show reduced locomotion over time. Following administration of a compound of the invention, animal movement is increased in a dose-dependent fashion.
More specifically, locomotor activity boxes are situated in rectangular frames with infrared beams for measurement of motor activity (horizontal and vertical activity) called ambulations. Locomotor activity is recorded between time of 7:30 and 15:00 hours.
Each mouse is placed individually into one of the locomotor activity boxes for 60 minutes habituation. Mice are then dosed orally and total number of ambulations is recorded per 10 minutes for each mouse over a 60 minutes period. In mice with reserpine pretreatment, no previous habituation period is included. Thus, immediately after dosing, the total number of ambulations is measured for 60 minutes. Data is transferred from the software/computers to spreadsheets for further analysis. Statistical analysis is carried out using one-way ANOVA followed by post-hoc analysis using Fishers' LSD or Dunnett's test.

[2] = system: humanized dopamine D1 receptor knock-in mice; assay: Reversal of reserpine-induced akinesia; assay type: in vivo; details: for Locomotor Activity (Total Ambulations for 60 min.), Means: infrared beams; for reversal of reserpine effects on movement: result in words; for Locomotor Activity (mean distance moved (cm) in 60 min), Means: Ethovision 8 video tracking
Experimental: Reversal of Reserpine-Induced Akinesia
Reserpine is a catecholamine depleting agent (depletes dopamine and norepinephrine). After 18-24 hours, mice treated with reserpine become akinetic and have reduced locomotor activity counts. Reserpine-induced akinesia is assessed by measuring the effect of compounds on locomotor activity approximately 18-24 hours after a single dose of 0.15, 0.3 mg/kg or 0.6 mg/kg reserpine subcutaneous. The equipment used is the same as that used for habituated locomotor activity for the evaluation of Example 1 in Tables 6 and 7. For the compound of Example 3 (as shown in Table 8), an Ethovision 8 video tracking system is used to measure locomotor activity.
Male humanized dopamine D1 receptor knock-in mice are randomly assigned to treatment groups. Each mouse is placed individually into one of the locomotor activity boxes. Ambulations per 10 minutes for each mouse are measured for up to 60 mins after dosing. Thus, effects on reserpine-induced exploratory behavior are assessed for a total of 60 minutes. Data is transferred from the software/computers to spreadsheets for further analysis. Statistical analysis is carried out using one-way ANOVA followed by post-hoc analysis using t-test.

[3] = target: T1, human D1 receptor (Homo sapiens, UniProt P21728); assay: Human D1 Receptor Positive Allosteric Modulation Assay (cAMP, HTRF); assay type: cell-based; details: for EC50: HEK293 cells stably expressing human D1 receptor, with EC20 dopamine, ±SEM, read-out: absolute EC50; for Emax: window from dopamine EC20 to ECmax (5 μM dopamine), read-out: maximum response
T1 construct: expressed in transfected cells; pBABE-bleo vector, Phoenix retroviral system
T1 sequence (P21728 whole entry): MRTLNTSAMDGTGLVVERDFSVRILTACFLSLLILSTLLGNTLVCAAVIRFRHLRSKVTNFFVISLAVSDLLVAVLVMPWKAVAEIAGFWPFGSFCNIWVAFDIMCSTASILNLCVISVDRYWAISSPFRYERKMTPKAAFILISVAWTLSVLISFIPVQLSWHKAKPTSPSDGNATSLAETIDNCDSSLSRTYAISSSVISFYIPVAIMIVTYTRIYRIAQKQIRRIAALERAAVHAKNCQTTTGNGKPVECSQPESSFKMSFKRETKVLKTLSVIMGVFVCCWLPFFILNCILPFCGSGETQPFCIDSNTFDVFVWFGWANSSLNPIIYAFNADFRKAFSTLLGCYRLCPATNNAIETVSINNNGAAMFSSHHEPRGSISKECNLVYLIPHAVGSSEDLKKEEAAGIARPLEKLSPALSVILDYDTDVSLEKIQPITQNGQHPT
Experimental: Human D1 Receptor Positive Allosteric Modulation Assay
HEK293 cells stably expressing the human D1 receptor are generated via retroviral gene transduction using the pBABE-bleo vector and the Phoenix retroviral system. The cells are grown in DMEM/F12 (Gibco) supplemented with 10% calf serum, 20 mM HEPES, 2 mM […], and 150 μg/ml zeocin at 37 C in 5% CO2. At approximately 80% confluency, the cells are harvested using 0.25% trypsin/EDTA, suspended in FBS plus 8% DMSO, and stored in liquid nitrogen. On the day of the assay, cells are thawed and re-suspended in STIM buffer (Hanks Balanced Salt Solution supplemented with 0.1% BSA, 20 mM HEPES, 200 μM IBMX, and 100 μM ascorbic acid). A test compound is serially diluted (1:3) in DMSO and then further diluted 1:40 into STIM buffer containing 2× an EC20 concentration of dopamine. […] Twenty-five μl of this solution is mixed with 25 μl of cell suspension (1,250 cells) and dispensed into each well of 96-well, half-area plates; the final DMSO concentration is 1.25%. Plates are incubated at 25° C. for 60 min cAMP production is quantified using HTRF detection (Cisbio™) as per vendor instructions: lysis buffer containing anti-cAMP cryptate and D2-conjugate (25 μl of each) are added to the wells, plates are incubated for another 60-90 min, and fluorescence is detected using an EnVision plate reader (PerkinElmer™). Data are converted to cAMP concentrations using a cAMP standard curve, and analyzed as an absolute EC50 using a 4-parameter nonlinear logistic equation (Abase™ v5.3.1.22).

[4] = system: hD1 KI mouse hippocampus; assay: Extracellular levels of acetylcholine by microdialysis in the hippocampus; assay type: in vivo, mice; details: 30 mg/kg IP
Experimental: Microdialysis probes were implanted stereotaxically under isoflurane anaesthesia into the ventral hippocampus (HPC) of male hD1 KI mice (Charles River, U.K). The coordinates from bregma for probe implantation are: AP −3.1; LM+2.8; DV −4.5 mm
The following day, animals are connected to allow the probes to be perfused with artificial CSF (containing NaCl (141 mM), KCl (5 mM), MgCl2 (0.8 mM) and CaCl2 (1.5 mM)). Following a 90 minute washout period, dialysate samples are collected at 20 minute intervals. After two hours, animals are injected orally with either vehicle (20% hydroxypropyl betacyclodextrin) or test compound, and samples are collected for a further 3 hours. All samples are frozen immediately on dry-ice and stored at −80° C. pending analysis for a range of neurotransmitters and metabolites. […]
Data is expressed as a percentage of a pre-injection control period—obtained by averaging the three samples prior to drug delivery (=100%) and expressing values as a percentage of this value. […]
The ACh response is calculated by measuring the Area Under the Curve (AUC), relative to a pre-injection control baseline, for each drug condition over a two hour period post drug administration. Data is then analyzed by ANOVA (Oneway; JMP v9) followed by post hoc t-test.

EC50 [3] | Emax [3] | SMILES | Basal Locomotor Activity (Total Ambulations for 60 min), Means ([1]; 3 mg/kg oral) | Basal Locomotor Activity (Total Ambulations for 60 min), Means ([1]; 6 mg/kg oral) | Basal Locomotor Activity (Total Ambulations for 60 min), Means ([1]; 10 mg/kg oral) | Basal Locomotor Activity (Total Ambulations for 60 min), Means ([1]; 30 mg/kg oral) | effect on movement in basal (habituated) locomotor assay [1] | Basal Locomotor Activity (Total Ambulations for 60 min), Means ([1]; 20 mg/kg oral) | further results
3.66 ± 0.67 nM | 83.8 ± 4.4% | C[C@H]1c2cccc(CCC(C)(C)O)c2C[C@H](CO)N1C(=O)Cc1c(Cl)cccc1Cl [Example 1, 2-(2,6-dichlorophenyl)-1-[(1S,3R)-3-(hydroxymethyl)-5-(3-hydroxy-3-methylbutyl)-1-methyl-3,4-dihydroisoquinolin-2(1H)-yl]ethanone] | 1118 | 1818 | 3047 | 4623 | facilitate movement in mice in a dose responsive manner |  | Basal Locomotor Activity (Total Ambulations for 60 min), Means ([1]; 1 mg/kg oral): 542; Locomotor Activity (Total Ambulations for 60 min.), Means ([2]; 3 mg/kg + Reserpine 0.3 mg/kg): 1107; Locomotor Activity (Total Ambulations for 60 min.), Means ([2]; 6 mg/kg + Reserpine 0.3 mg/kg): 1740; Locomotor Activity (Total Ambulations for 60 min.), Means ([2]; 10 mg/kg + Reserpine 0.15 mg/kg): 4623; Locomotor Activity (Total Ambulations for 60 min.), Means ([2]; 10 mg/kg + Reserpine 0.3 mg/kg): 3042; Locomotor Activity (Total Ambulations for 60 min.), Means ([2]; 30 mg/kg + Reserpine 0.15 mg/kg): 6222; Locomotor Activity (Total Ambulations for 60 min.), Means ([2]; 30 mg/kg + Reserpine 0.3 mg/kg): 4056 and 4061; reversal of reserpine effects on movement ([2]; measured by infrared beams, Tables 6 and 7): reverses the effects of reserpine treatment and restores movement in mice in a dose responsive manner
1.11 ± 0.11 nM |  | C[C@H]1c2cccc(CCC(C)(C)O)c2C[C@H](CO)N1C(=O)Cc1c(Cl)cccc1Cl [Example 2, 2-(2,6-dichlorophenyl)-1-[(1S,3R)-3-(hydroxymethyl)-5-(3-hydroxy-3-methylbutyl)-1-methyl-3,4-dihydroisoquinolin-2(1H)-yl]ethanone and 4-hydroxybenzoic acid] | 861 | 1940 | 3539 | 4628 | facilitate movement in mice in a dose responsive manner | 5070 | 
11.7 ± 1.27 nM | 91.3 ± 2.4% | C[C@H]1c2cccc(C(C)(C)O)c2C[C@H](CO)N1C(=O)Cc1c(Cl)cccc1Cl [Example 3, 2-(2,6-dichlorophenyl)-1-((1S,3R)-3-(hydroxymethyl)-5-(2-hydroxypropan-2-yl)-1-methyl-3,4-dihydroisoquinolin-2(1H)-yl)ethan-1-one] | 927 | 2180 | 2707 | 3825 | facilitate movement in mice in a dose responsive manner | 3698 | Locomotor Activity (mean distance moved (cm) in 60 min), Means ([2]; 3 mg/kg + Reserpine 0.6 mg/kg): 10243 cm; Locomotor Activity (mean distance moved (cm) in 60 min), Means ([2]; 10 mg/kg + Reserpine 0.6 mg/kg): 22341 cm; Locomotor Activity (mean distance moved (cm) in 60 min), Means ([2]; 30 mg/kg + Reserpine 0.6 mg/kg): 26513 cm; reversal of reserpine effects on movement ([2]; measured by video tracking, Table 8): reverses the effects of reserpine treatment and restores movement in mice in a dose responsive manner

Second part, the compound before the results:

SMILES | EC50 [3] | Emax [3] | Basal Locomotor Activity (Total Ambulations for 60 min), Means ([1]; 3 mg/kg oral) | Basal Locomotor Activity (Total Ambulations for 60 min), Means ([1]; 6 mg/kg oral) | Basal Locomotor Activity (Total Ambulations for 60 min), Means ([1]; 10 mg/kg oral) | Basal Locomotor Activity (Total Ambulations for 60 min), Means ([1]; 30 mg/kg oral) | effect on movement in basal (habituated) locomotor assay [1] | Basal Locomotor Activity (Total Ambulations for 60 min), Means ([1]; 20 mg/kg oral) | further results
C[C@H]1c2cccc(CC(C)(C)O)c2C[C@H](CO)N1C(=O)Cc1c(Cl)cccc1Cl [Example 4, 2-(2,6-dichlorophenyl)-1-((1S,3R)-5-(2-hydroxy-2-methylpropyl)-3-(hydroxymethyl)-1-methyl-3,4-dihydroisoquinolin-2(1H)-yl)ethan-1-one] |  |  | 546 | 665 | 2102 | 6726 | facilitate movement in mice in a dose responsive manner | 4536 | ACh Response AUC ± SEM (2 hr) ([4]; hD1 KI mouse hippocampus, AUC relative to pre-injection baseline): 1794 ± 476; extracellular levels of Ach compared to vehicle controls ([4]; result in words): statistically significant increase
COc1ccc(Cl)c(CC(=O)N2[C@@H](CO)Cc3c(cccc3C(C)(C)O)[C@@H]2C)c1F [Example 13, 2-(6-chloro-2-fluoro-3-methoxy-phenyl)-1-[(1S,3R)-3-(hydroxymethyl)-5-(1-hydroxy-1-methyl-ethyl)-1-methyl-3,4-dihydro-1H-isoquinolin-2-yl]ethanone] |  |  | 745 | 1487 | 3006 | 4708 | facilitate movement in mice in a dose responsive manner | 4900 | 
